Measurements published in patent US20210087222A1, “COMPOUNDS FOR TREATING NEURODEGENERATIVE DISORDERS” (ETHNODYNE, priority 2017, published 2021).

Experiments:
[1] = tested on: Human MRC-5 cell line derived from normal lung tissue; experiment: Cytotoxicity test, MTS cell growth inhibition assay; type: cell-based; details: MRC-5 cells, 72 h incubation, 8 concentrations, FIG. 1a
Method: (§1) Human MRC-5 cell line derived from normal lung tissue and human HCT-116 colorectal carcinoma were obtained from the American Type Culture Collection (ATCC, Rockville, Md.). Primary Human Umbilical Vein Endothelial Cells (HUVEC) isolated from the vein of the umbilical cord were obtained from Promocell (Germany). Cell lines were cultured according to the supplier's instructions. Human HCT-116 cells were grown in Gibco McCoy's 5A supplemented with 10% fetal calf serum (FCS) and 1% glutamine. Human MRC-5 cells were grown in DMEM supplemented with 10% fetal calf serum (FCS) and 1% glutamine. HUVECs were grown in Endothelial Cell Growth Medium 2 which is low-serum (2% V/V) media optimized for the cultivation of endothelial cells from large blood vessels.
(§2) Cells were counted using a Vi-cell XR (Beckman Coulter) and their viability assessed by 0.25% trypan blue dye exclusion. They were tested for the presence of mycoplasma before experiments with the Mycoplasma PCR Detection Kit (Applied Biological Materials Inc., Canada) in accordance with the manufacturer instructions and only mycoplasma-free cells were used for further investigations.
(§3) Cell lines were maintained at 37° C. in a humidified atmosphere containing 5% CO2. Cell growth inhibition was determined by an MTS assay according to the manufacturer's instructions (Promega, Madison, Wis., USA). […] After 24 h of culture, the cells were treated with the compound CR591 of example 1 at 8 different final concentrations. Each concentration was obtained from serial dilutions in culture medium starting from the stock solution. Control cells were treated with the vehicle. Experiments were performed in triplicate.
(§4) After 72 h of incubation, 20 μL of CellTiter 96® AQueous One Solution Reagent was added for 2 h before recording absorbance 490 nm with a spectrophotometric plate reader. The dose-response curves were plotted with Graph Prism software and the IC50 values were calculated using the Graph Prism software from polynomial curves (four or five-parameter logistic equations).

[2] = tested on: Primary Human Umbilical Vein Endothelial Cells (HUVEC); experiment: as above; type: cell-based; details: 72 h incubation, 8 concentrations, FIG. 1c
Method: as §1, §2, §3, §4

[3] = tested on: human HCT-116 colorectal carcinoma; experiment: as above; type: cell-based; details: HCT-116 cells, 72 h incubation, 8 concentrations, FIG. 1b
Method: as §1, §2, §3, §4

[4] = tested on: OPC (precursor cells of oligodendrocytes) in primary cocultures of central neurons and oligodendrocytes; experiment: In vitro MS (myelination) model, OPC number (A2B5 positive cells) at day 12; type: cell-based, rat; details: 12 days treatment
Method: (§5) A reproducible in vitro myelination model based on primary cocultures of central neurons and oligodendrocytes culturing in 96-well plate is used and adapted to high throughput screening.
(§6) Neurons/oligodendrocytes were cultured as previously described by Charles et al., 2000. PNAS 97 7585-7590.
Briefly, pregnant Wistar female rats of 17 days gestation were killed by cervical dislocation (Janvier Labs, France) and the foetuses removed from the uterus. The forebrains were removed and placed in ice-cold medium of Leibovitz (L15; Pan Biotech, Germany) containing 2% of Penicillin-Streptomycin (Batch 1451013, PanBiotech) and 1% of bovine serum albumin (BSA) (Batch K180713, Pan Biotech). Cortexes were dissociated by trypsinisation for 20 min at 37° C., with Trypsin EDTA 1X (Batch 7310713, PanBiotech). The reaction was stopped by the addition of Dulbecco's modified Eagle's medium (DMEM) (Batch 9710913, PanBiotech) containing DNAase I grade II at 0.1 mg/mL (Batch H131108, PanBiotech) and 10% of foetal calf serum (Batch 41Q7218K, Invitrogen, France). […]
(§7) The immunolabeled cultures were automatically examined with ImageXpress (Molecular Devices) equipped with a LED at ×20 magnification. […] Number of A2B5 positive cells and number of MAG positive cells were automatically analyzed by using Custom module editor (Molecular Devices). […] All values were expressed as mean+/−SEM (s.e.mean) of the 6 wells. […]

[5] = tested on: MAG positive cells (OL) in primary cocultures of central neurons and oligodendrocytes; experiment: In vitro MS (myelination) model, MAG evaluation at day 18; type: cell-based, rat; details: 18 days of treatment, bell shape curve
Method: as §5, §6
Briefly, pregnant Wistar female rats of 17 days gestation were killed by cervical dislocation (Janvier Labs, France) and the foetuses removed from the uterus. The forebrains were removed and placed in ice-cold medium of Leibovitz (L15; Pan Biotech, Germany) containing 2% of Penicillin-Streptomycin (Batch 1451013, PanBiotech) and 1% of bovine serum albumin (BSA) (Batch K180713, Pan Biotech). Cortexes were dissociated by trypsinisation for 20 min at 37° C., with Trypsin EDTA 1X (Batch 7310713, PanBiotech). The reaction was stopped by the addition of Dulbecco's modified Eagle's medium (DMEM) (Batch 9710913, PanBiotech) containing DNAase I grade II at 0.1 mg/mL (Batch H131108, PanBiotech) and 10% of foetal calf serum (Batch 41Q7218K, Invitrogen, France). Cells were then mechanically dissociated by 3 passages through a 10 mL pipette. Cells were centrifuged at 180×g for 10 min at 4° C. temperature on a layer of BSA (3.5%) in L15 medium. The supernatant was discarded and cells of the pellet were re-suspended in DMEM containing 10% of FCS. […] The supernatant was discarded and cells of pellet were re-suspended in a culture medium consisting of Neurobasal (Batch 1625353, Invitrogen) supplemented with 2% of B27 (Batch 1618508, Invitrogen), 2 mM of L-glutamine (Batch 6620314, PanBiotech), 2% of PS solution, 1% of foetal calf serum (FCS) and 10 ng/mL of platelet-derived growth factor (PDGF-AA) (Batch H131205, PanBiotech). […]
as §7

[6] = tested on: primary rat motor neurons injured with glutamate; experiment: Primary motor neuron culture survival after glutamate injury (in vitro ALS model); type: cell-based
Method: The aim of this study was to study the effect of CR591 on primary motor neuron culture from rat spinal cord (SC) injured by glutamate exposure (a well validated in vitro ALS model and model of motor neuron diseases).
Rat SC motor neurons were cultured as described by Martinou et al., Neuron. 1992 April; 8(4):737-44 and Wang et al., Hum Mol Genet. 2013 Dec. 1; 22(23):4706-19. Briefly, pregnant female rats (Wistar, Janvier labs) of 14 days gestation were killed by cervical dislocation. […] Cells were then centrifuged at 180 g for 10 min at +4° C. on a layer of BSA (3.5%) in L15 medium. […] The medium was changed every day.
The following conditions were assessed: • Control • + glutamate (5 μM 20 mn then 48 h) • + glutamate (5 μM 20 mn then 48 h)+CR591 1 pmol/L • + glutamate (5 μM 20 mn then 48 h)+CR591 10 pmol/L • + glutamate (5 μM 20 mn then 48 h)+CR591 100 pmol/L • + glutamate (5 μM 20 mn then 48 h)+CR591 1 nmol/L • + glutamate (5 μM 20 mn then 48 h)+CR591 10 nmol/L • + glutamate (5 μM 20 mn then 48 h)+CR591 100 nmol/L • + glutamate (5 μM 20 mn then 48 h)+CR591 1 μmol/L • + glutamate (5 μM 20 mn then 48 h)+CR591 10 μmol/L […]
For each condition, 6 wells were assessed, 30 pictures per well were taken using ImageXpress (Molecular Devices) with 20× magnification, to assess motor neuron survival (MAP-2). […]

Row | SMILES | toxicity (cell growth inhibition) [1] | toxicity (cell growth inhibition) [2] | toxicity (cell growth inhibition) [3] | OPC number (A2B5 positive cells) ([4]; 1 pmol/L to 10 μmol/L, FIG. 2) | total number of OPCs at the highest doses ([4]; highest doses, inhibition of proliferation or toxic effect) | concentration of maximal effect on MAG positive cells / myelination [5] | number of MAG positive cells ([5]; FIG. 3a) | myelination of neurons by OL (area of MAG expression) ([5]; FIG. 3b) | protective effect of motor neuron (survival, MAP-2) ([6]; added 1 h before glutamate (5 μM 20 min, then 48 h), between 1 nM and 10 nM, FIG. 4) | motor neuron death ([6]; glutamate 5 μM for 20 min, read 48 h later, versus control = 100%)
1 | CC1=C(CO)C(=O)O[C@@H]([C@@H](C)[C@H]2CCC3C4C[C@H](SC[C@H](N)C(=O)O)[C@]5(O)[C@@H](O)C=CC(=O)[C@]5(C)C4CC[C@@]32C)C1 (stereo partly shown) [CR591] | does not show any toxicity | does not show any toxicity | does not show any toxicity | did not show any significant increase | decrease of the total number of OPCs was observed | 1 nM | able to increase the number of MAG positive cells | significantly improved the myelination of neurons by OL | moderate and significant protective effect | –
2 | N[C@@H](CCC(=O)O)C(=O)O [Glutamate, glutamate, reference compound] | – | – | – | – | – | – | – | – | – | > 30%
